Experimental data: PMC9411606, “Control cell migration by engineering integrin ligand assembly” (Nature Communications, 2022)

Test: Circular dichroism (CD) spectroscopy of peptide assemblies
Format: physicochemical
Conditions: 100 µM, aqueous, 0.5 mm path
Experimental: CD spectra of the peptide assemblies in aqueous solutions were recorded under the nitrogen atmosphere using a spectrophotometer JASCO J-820 (Jasco, Japan). A quartz cuvette with 0.5 mm path length was used as a sample container. Continuous scanning mode is applied. And each sample is scanned three times to obtain an averaged spectrum.

| secondary structure of self-assembly | Substance |
| --- | --- |
| β-sheet structure | FFIKLLI [candidate assembling ligand, FF coupled to N-terminus of IKLLI] |
| random coil structure | FIKLLI [candidate assembling ligand, F coupled to N-terminus of IKLLI] |
